Where two headings read alike, the source gives them in different places.
Columns and labels:
[1] = system: HIV-1 (Gag) gene expression; assay: HIV-1 (Gag) gene expression in HeLa rtTA-HIV-ΔMls cells, p24CA ELISA dose response; type: cell-based, HIV-1 (LAI); conditions: for IC50: read-out: IC50 (nM) HeLa rtTA-HIV-ΔMls
Method: Drug/compounds were tested for effects on HIV-1 gene expression using inducible Tet-ON HIV-1 cell lines [HeLa rtTA-HIV-ΔMls or rtTA-HIV(Gag-GFP)] containing a HIV-1 (LAI) provirus activatable by Dox or tetracycline transactivator (tTA)[69]. The rtTA-HIV-ΔMls provirus was modified and used as previously reported[9]–[11],[70]. The rtTA-HIV(Gag-GFP) provirus was generated by deletion of the PR and RT coding regions within pol and insertion of GFP to the 3′ of gag, creating GFP fused to the C-terminal of Gag. After 4 h of drug/compound treatment, HIV-1 gene expression was activated with Dox (2 μg/mL) or tTA (described below). Equal concentrations of DMSO were present in each experiment. After ~20 h, cells and media were harvested to monitor the effects of drug/compound treatments as described below. HIV-1 gene expression was quantified via p24^CA ELISA or monitoring Gag-GFP fluorescence in cells as described below. In parallel, cell viability of treatments were assessed by XTT assay (Sigma-Aldrich, #TOX2).
Drug/compounds were purchased from Sigma (Digoxin, #D6003; Digitoxin, #D5878; Digoxigenin, #D9026; Digitoxigenin, #D9404; Ouabain, #O3125; Bufalin, #S961175; Cinobufagin, #C1272; and Anisomycin, #A9789) and derivatives of convallatoxin were synthesized from C. Lingwood’s lab of the Hospital for Sick Children (convallatoxin, peruvoside, RIDK-34, -36, -20, -21, -27, and -28). […] Recombinant human EGF was from Invitrogen (#PHG0314). Chemical structures were drawn in ChemSketch (ACD/Labs).
To monitor HIV-1 gene expression or replication, Gag release into cell culture supernatants were assayed by ELISA using a p24^CA antigen capture assay kit (AIDS & Cancer Virus Program, NCI-Frederick, Frederick, MD USA). Media harvested from HIV clinical isolates were diluted ~10 fold (or as necessary) prior to performing this assay. For analysis of HIV-1 and SR protein expression (and phosphorylation states with calf intestinal alkaline phosphatase treatments), cells were lysed and analyzed by western blot as previously outlined. Phosphatase inhibitors (e.g. 10 mM sodium fluoride, 2 mM sodium orthovanadate) were added to solutions requiring phospho protein analyses. An anti-chicken NKA antibody (α6F, #a6F–c, Developmental Studies Hybridoma Bank, The University of Iowa, contributed by Douglas M. Fambrough, The Johns Hopkins University) was used as specified to detect NKA α1- and β1-subunits across species. […] Activation of MAPKs was determined by western blot quantitation and calculation of phospho/total protein levels. […] Images were exported as TIF files for assembly, rotation, and equal brightness/contrast adjustments in ImageJ or Microsoft Powerpoint. Some lanes were cropped and rearranged from the same blot/gel as indicated. In representative gel/blot sets, samples were electrophoresed from the same experiment as controls, resolved simultaneously on identically cast gel(s), transferred to same PVDF (by either wet electrophoretic or by Bio-Rad Trans-Blot® Turbo Transfer System), and detected at same time. Marked locations of molecular weight (MW) standards are shown on the left as a reference. […] SUnSET analysis of total cellular protein synthesis. HeLa rtTA-HIV-ΔMls cells were cultured in the presence/absence of compound and pathway inhibitor (if any) and Dox induced for ~24 h as already described, then treated with puromycin (10 μg/mL, Sigma-Aldrich, #P8833) for 30 min to label nascent proteins prior to harvest. As control, 10 µM of cycloheximide (Sigma-Aldrich, #C4849) was added to some cells prior to puromycin treatment. Cells were subsequently washed, whole cell lysates prepared, and proteins quantified by western blot using an anti-puromycin antibody (EMD Millipore, #anti-12D10) as described above. Transfection of plasmid DNA into cells.

HeLa rtTA-HIV-ΔMls cells = assay: In vitro therapeutic index (CC20/IC50) in HeLa rtTA-HIV-ΔMls cells; type: cell-based, human
From the text: Without median toxic dose (TD50) and half-maximal effective concentration (EC50) data available to calculate TIs (in vivo) from HIV patients treated with CSs, we determined the following TIs for each cell type treated with a CS (summarized in Supplementary Table S1): in vitro TIs from HeLa rtTA-HIV-ΔMls cells using CC20/IC50 (instead of CC50/IC50), in vitro TIs from 24ST1NLESG cells using CC50/IC50, and ex vivo TIs from HIV-infected PBMCs using CC50/IC50 (at day 14 of culture approximated from available cell viability trends for CC50s of Supplementary Fig. S13 and inferred near maximal IC50s).
Supplementary Table S1. Comparison of the in vitro (IVTI) and ex vivo therapeutic indices (EVTIs) of CSs and their impact on the expression of essential HIV-1 proteins.
Notes: data for CC20, CC50, and IC50s for each drug/compound were estimated from dose response curves in Figures 1-2, Supplementary Table S1, Supplementary Figures S2, S5, and S13, and Wong et al.
">" means the estimate has not been accurately determined but is greater than the highest concentration […]
"( )" indicates preliminary data that was not shown. aCC20 instead of CC50 was estimated from dose response curves and used for calculation of IVTIs. bCells were treated at ~IC90of a CS.
(1 picture or pasted object on this page, not shown here)

HIV-1 Gag-GFP expression = assay: Recovery of HIV-1 Gag-GFP expression by pathway inhibitors in the presence of CSs, HeLa rtTA-HIV(Gag-GFP) cells; type: cell-based; conditions: 12 μM U0126; 5.5 μM Selumetinib; 10 μM LY294002; 5 µM KB-R7943; CSs at ~IC80
Method: Figure 5 Effect of modulating NKA expression, [Ca^2+]i, and PI3K-AKT on HIV-1 gene expression. Depletion of the NKA perturbs HIV-1 RNA processing (n ≥ 3, mean, s.e.m.). HeLa rtTA-HIV(Gag-GFP) cells were transduced with two shRNAs (E6/E10) to knockdown expression of the NKA α1 subunit and their effect on HIV-1 gene expression analyzed. After positive selection of cells with puromycin for 24–48 h, HIV-1 expression was Dox induced for 20 h, and cells harvested for analyses. Total mRNA (and protein) was isolated from cells, reverse transcribed, and analyzed by qRT-PCR and data normalized to β-actin (a,c). Results are shown relative to Stuffer (+). (a) Expression levels of NKA α1 mRNAs assayed by qRT-PCR. (b) HIV-1 Gag expression assayed by p24^CA ELISA of cell lysates (40 μg). (c) Accumulation of HIV-1 US (black), SS (white), and MS (gray) mRNAs quantified by qRT-PCR. (d–g) CSs suppress HIV-1 gene expression independent of intracellular Ca^2+ flux/signaling and PI3K-AKT activation. HeLa rtTA-HIV(Gag-GFP) cells were pre-treated with either a chelator of [Ca^2+]i (5 µM BAPTA-AM, [Ca2+]ii), inhibitors of NCX Ca^2+-entry (5 µM KB-R7943, NCXi) or PI3K (10 μM LY294002, PI3Ki), or untreated (DMSO, no pathway inhibitor) for ~2 h prior to treatment with ~IC80s of CSs or DMSO for 4 h, and Dox induced for ~20 h. The pathway used by a CS to inhibit HIV-1 expression was determined by monitoring for recovery of Gag-GFP expression by measuring GFP fluorescence in cell lysates (and initially by plate scans of live/fixed cells, Supplementary Fig. S7a and S8c). (d) Levels of [Ca^2+]i measured by Fura Red AM™ (n ≥ 4, mean, s.e.m.). (e–f) Quantification of Gag-GFP expression by reducing SDS-PAGE in lysates (35 μg) of cells which were pre-treated with/without KB-R7943 (n ≥ 3–4 mean, s.e.m.). […] (g) Graph quantitating Gag expression by p24^CA ELISA in lysates of cells (35 μg) that were pre-treated with/without LY294002 (n ≥ 3, mean, s.e.m.). Statistical comparisons in (a–g) were performed as illustrated (black/gray dashed lines) or described in Methods.
Figure 6 CSs control HIV-1 gene expression through intracellular signaling. HeLa rtTA-HIV(Gag-GFP) cells were pre-treated with/without pathway inhibitor overnight (~15 h) and treated with ~IC80s of CSs. […] Graphs quantifying the activation level (phospho/total protein) of each MAP/MAPK by western blot. […] The signaling pathway(s) used by a CS to inhibit HIV-1 expression was determined by detecting Gag-GFP fluorescence in cell lysates (~35 μg) by reducing SDS-PAGE after pre-treatment of cells with a MEK1/2 (12 μM U0126, white), p38α/β/β2 (15 μM SB203580/p38i, gray), or JNK1/2/3 (1.25 μM SP600125/JNKi, hatched) inhibitor (n ≥ 5–7, 4–8, and 3–7, resp., mean, s.e.m.). […]

[2] = Human immunodeficiency virus 1, HeLa
[3] = Human immunodeficiency virus 1, HeLa, read-out: IC90, HIV-1 (Gag) gene expression

Compound CC(=O)O[C@H]1[C@H]2O[C@]23[C@@H]2CC[C@@H]4C[C@@H](O)CC[C@]4(C)[C@H]2CC[C@]3(C)[C@H]1c1ccc(=O)oc1 [Cinobufagin] has an IC50 [1, 2] of 24 nM, an IC90 [1, 3] of 40 nM and an IC80 ([1]; Human immunodeficiency virus 1, HeLa, read-out: ~IC80 (approximate concentration used in experiments)) of ~40 nM. The IC90 ([1]; Human immunodeficiency virus 1, HeLa, read-out: ~IC90 (approximate concentration used in experiments)) was ~40 nM, the “better anti-HIV-1 activity than digoxin” value ([1]; cell based assays (HeLa rtTA-HIV-ΔMls)) was 1.9 fold and the “better in vitro TI than digoxin” value (HeLa rtTA-HIV-ΔMls cells) was 2.3 fold.

With CC1OC(OC2CC(O)C3(CO)C4C(O)CC5(C)C(C(=CC(=O)O)CO)CCC5(O)C4CCC3(O)C2)C(O)C(O)C1O (stereo not drawn) [RIDK-21] the “anti-HIV-1 activity” value ([1]; HeLa rtTA-HIV-ΔMls cells) was “reduced/no anti-HIV-1 activity” and the IC50 ([1]; HIV-1 Gag expression, p24CA ELISA, 4 h drug then Dox ~20 h) was > 100 nM.

For Cn1cnc2c(F)c(Nc3ccc(Br)cc3Cl)c(C(=O)NOCCO)cc21 [Selumetinib], the “reversal of CS inhibition of HIV-1 Gag-GFP expression by pathway inhibitor pre-treatment” value (“reversal … by pathway inhibitor pre-treatment” below) (HIV-1 Gag-GFP expression) was “partially rescuing”.

O=c1cc(N2CCOCC2)oc2c(-c3ccccc3)cccc12 [LY294002] was tested, and the “reversal … by pathway inhibitor pre-treatment” value (HIV-1 Gag-GFP expression) was “did not reverse”.

CO[C@H]1[C@H](O)[C@H](O[C@H]2CC[C@@]3(C=O)[C@H](CC[C@@H]4[C@@H]3CC[C@]3(C)[C@@H](C5=CC(=O)OC5)CC[C@]43O)C2)O[C@@H](C)[C@@H]1O [Peruvoside] was tested, and the “reduced potency relative to convallatoxin” value ([1]; HeLa rtTA-HIV-ΔMls cells) was 10 fold, the IC50 [1, 2] was 80 nM and the IC90 [1, 3] was 250 nM.

With C[C@@H]1O[C@@H](O[C@H]2CC[C@]3(C=O)[C@H]4CC[C@]5(C)[C@@H](C6=CC(=O)OC6)CC[C@]5(O)[C@@H]4CC[C@]3(O)C2)[C@H](O)[C@H](O)[C@H]1O [Convallatoxin] the “better anti-HIV-1 activity than digoxin” value [1] was 3.8 fold, the IC50 ([1]; Human immunodeficiency virus 1, HeLa, HIV-1 Gag expression, p24CA ELISA, 4 h drug then Dox ~20 h) was 12 nM and the IC90 ([1]; Human immunodeficiency virus 1, HeLa rtTA-HIV-ΔMls cells, read-out: IC90, HIV-1 (Gag) gene expression) was 24 nM. For the same compound, the “better in vitro TI than digoxin” value (HeLa rtTA-HIV-ΔMls cells) was 6.8 fold.

With N#CC(=C(/N)Sc1ccccc1N)/C(C#N)=C(/N)Sc1ccccc1N [U0126] the “reversal … by pathway inhibitor pre-treatment” value (HIV-1 Gag-GFP expression) was “partially restored”.

Source: PMC5770468, “Cardiac glycoside/aglycones inhibit HIV-1 gene expression by a mechanism requiring MEK1/2-ERK1/2 signaling” (Scientific Reports, 2018)
